Laboratory results reported in patent US20040092517A1, “Phenyl derivatives and their use in the treatment of thromboembolic disorders or tumours” (priority 2001, published 2004).
Counter-ions that a name gives are not always drawn.

What was measured:
factor Xa = factor Xa (Homo sapiens, UniProt P00742); assay: Inhibition of factor Xa; type: biochemical
Description: The inhibition of factor Xa by the compounds according to the invention and the measurement of the anticoagulant and antithrombotic activity can be determined by conventional in-vitro or in-vivo methods. A suitable method is described, for example, by J. Hauptmann et al. in Thrombosis and Haemostasis 1990, 63, 220-223.
The inhibition of factor Xa can be measured, for example, by the method of T. Hara et al. in Thromb. Haemostas. 1994, 71, 314-319.

factor VIIa = target: T1, factor VIIa (Homo sapiens, UniProt P08709); assay: Inhibition of factor VIIa; type: biochemical
T1 sequence (P08709 213-466 limits assumed): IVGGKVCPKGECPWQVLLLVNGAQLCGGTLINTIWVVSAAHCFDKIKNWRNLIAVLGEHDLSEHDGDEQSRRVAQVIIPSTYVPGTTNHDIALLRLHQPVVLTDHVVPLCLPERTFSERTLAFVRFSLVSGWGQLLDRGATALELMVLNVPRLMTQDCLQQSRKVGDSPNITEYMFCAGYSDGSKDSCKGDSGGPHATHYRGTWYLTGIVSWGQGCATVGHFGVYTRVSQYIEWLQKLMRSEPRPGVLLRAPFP
T1 sequence (P08709 61-212 partner limits assumed): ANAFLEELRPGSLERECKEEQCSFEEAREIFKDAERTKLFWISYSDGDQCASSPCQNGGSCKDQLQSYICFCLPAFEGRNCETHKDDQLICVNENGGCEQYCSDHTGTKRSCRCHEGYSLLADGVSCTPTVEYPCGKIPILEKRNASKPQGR
Description: Coagulation factor VIIa initiates the extrinsic part of the coagulation cascade after binding to tissue factor and contributes to the activation of factor X to give factor Xa. Inhibition of factor VIIa thus prevents the formation of factor Xa and thus subsequent thrombin formation. The inhibition of factor VIIa by the compounds according to the invention and the measurement of the anticoagulant and antithrombotic activity can be determined by conventional in-vitro or in-vivo methods. A conventional method for the measurement of the inhibition of factor VIIa is described, for example, by H. F. Ronning et al. in Thrombosis Research 1996, 84, 73-81.

Sequence of factor Xa (P00742 235-488 limits assumed): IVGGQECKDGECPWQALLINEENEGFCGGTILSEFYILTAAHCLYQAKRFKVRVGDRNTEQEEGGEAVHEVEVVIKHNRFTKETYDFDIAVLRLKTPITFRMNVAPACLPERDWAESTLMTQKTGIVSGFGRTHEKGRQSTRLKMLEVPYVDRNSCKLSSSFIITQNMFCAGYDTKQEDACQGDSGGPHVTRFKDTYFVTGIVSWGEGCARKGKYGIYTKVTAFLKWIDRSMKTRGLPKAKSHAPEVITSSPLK
Sequence of factor Xa (P00742 41-179 partner limits assumed): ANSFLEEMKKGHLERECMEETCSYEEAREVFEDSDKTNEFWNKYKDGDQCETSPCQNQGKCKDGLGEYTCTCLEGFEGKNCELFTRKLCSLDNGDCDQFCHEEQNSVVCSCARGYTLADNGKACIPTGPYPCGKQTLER

`CS(=O)(=O)c1ccccc1-c1ccc(OC(C(=O)Nc2cccc(C(=N)N)c2)c2ccccc2)cc1` (stereo not drawn) [Example 1, N-(3-amidinophenyl)-2-(2′-methanesulfonylbiphenyl-4-oxyl)-2-phenylacetamide] gave an IC50 (factor Xa) of 0.11 µM and an IC50 (factor VIIa) of 0.046 µM.
With `CC(C)(C)NS(=O)(=O)c1ccccc1-c1ccc(NC(C(=O)Nc2cccc(C(=N)N)c2)c2ccccc2)cc1` (stereo not drawn) [Example 5.5, N-(3-amidinophenyl)-2-(2′-tert-butylaminosulfonylbiphenyl-4-amino)-2-phenylacetamide] the IC50 (factor Xa) was 0.14 µM and the IC50 (factor VIIa) was 0.55 µM.
In the case of `N=C(N)c1cccc(NC(=O)C(Nc2ccc(-c3ccccc3S(N)(=O)=O)cc2)c2ccccc2)c1` (stereo not drawn) [Example 5.6, N-(3-amidinophenyl)-2-(2′-aminosulfonylbiphenyl-4-amino)-2-phenylacetamide, trifluoroacetate], the IC50 (factor Xa) is reported as 0.02 µM and the IC50 (factor VIIa) is reported as 0.013 µM.
